Test results from patent US20230190967A1, “Method and Composition for Evaluating Response to Neurodegenerative Disease Treatment Agent” (GENUV INC., priority 2020, published 2023).
“Also recorded” adds a separate entry of the source. Where two headings read alike, the source gives them in different places.

What was measured:
Map2, a dendrite marker = experiment: Immunohistochemical analysis of Map2 (dendrite/neurite marker) in brain tissue of 5XFAD mice; type: in vivo, mouse; conditions: 8-month-old 5XFAD mice, FIGS. 8 and 9
Excerpt: (§1) Age-matched wild-type (WT) mice were orally administered vehicle for 2.5 months. Blood was obtained from all the mice at the age of 8 months after completion of the treatment and collected in EDTA tubes, which were centrifuged to obtain plasma. Mice were sacrificed by the perfusion method, and the brain cortex was extracted and immediately frozen.
The sections were counterstained with DAPI.

Cathepsin B (CTSB) = test system: Cathepsin B (CTSB)
Excerpt: as §1
(§2) Blood was obtained from the 13-month-old mice after completion of the treatment and collected in EDTA tubes, which were centrifuged to obtain plasma. Mice were sacrificed, and the brain cortex was extracted, washed with PBS, and immediately frozen.
(§3) ELISA was performed to detect changes in the level of biomarkers in the plasma of 5XFAD mice. The following ELISA kits were used for each of the biomarkers: • Neurofilament-light chain (NfL): Cloud-Clone, SEE038Mu • Cathepsin B (CTSB): Novus, NBP2-67254 • Osteopontin (OPN): LS bio, LS-F26046-1 • Synaptotagmin-1 (Syt1): LS bio, LS-F30963-1 • Apolipoprotein-E (ApoE): Novus, NBP2-66739
(§4) NfL, CTSB and ApoE were detected by colorimetric methods. OPN and Syt1 were detected by chemiluminescent methods. ELISA was performed according to the ELISA kit manufacturer's instructions.

Osteopontin (OPN) = experiment: ELISA of plasma osteopontin in 5XFAD mice; type: in vivo, mouse; conditions: for Decrease of plasma osteopontin (OPN) level vs. 5XFAD-vehicle group: 8-month-old 5XFAD
Excerpt: as §1, §2, §3, §4

[1] = test system: 8-month-old 5XFAD mouse brain cortex
Protocol: as §1
(§5) Single-cell RNA sequencing analysis was performed on the 8-month-old 5XFAD mouse and wild type mouse brain cortex samples. The cortex was microdissected in HABG (Hibernate A buffer including B27 supplement and glutamine) media and digested in papain solution for 20 min at 37° C. (Brewer et al (2007). Isolation and culture of adult neurons and neurospheres. Nat Protoc 2, 1490-1498). Using a Pasteur pipette, the digested cortex was gently triturated. Cells were isolated by the density gradient method using OptiPrep (Sigma-Aldrich, D1556).
The cell suspension was diluted with Drop-seq buffer, and Drop-seq was performed using the Chromium™ Single Cell 3′ v2 Reagent Kit (Campbell et al. (2017). A molecular census of arcuate hypothalamus and median eminence cell types. Nat Neurosci 20, 484-496). Libraries were sequenced on the Illumina HiSeq X Ten, and Read 1 was 16 bp (10×™ Barcode and 10 bp UMI). Cells with either very low or too high mRNA content (to only include: 200<gene number <3,000) or a high fraction of mitochondrial encoded transcripts (>20%) were filtered out. Using 20,056 cells, raw sequence data were aligned to the mouse (mm10) genome, and analyses including PCA, t-SNE, and graph-based clustering were performed with the Cell Ranger Single-Cell software.
In addition to the microglial cells, the other brain cell types were also analyzed for the genes differentially expressed between the experimental groups.

Synaptotagmin-1 (Syt1) = experiment: ELISA of plasma synaptotagmin-1 in 5XFAD mice; type: in vivo, mouse; conditions: 8-month-old 5XFAD
Protocol: as §1, §3, §4

H2-Ob mRNA = experiment: qRT-PCR of H2-Ob mRNA expression in brain cortex of 5XFAD mice; type: in vivo, mouse; conditions: 8-month-old 5XFAD mice brain cortex, 0.1 mg/kg/day trametinib, FIG. 11
Protocol: as §1
(§6) In addition, qRT-PCR was performed to measure the mRNA expression level in the brain tissue of each animal. […] Reverse transcription was performed using M-MLV reverse transcriptase (Invitrogen, 28025013). qRT-PCR was performed using the SYBRTM Green PCR master mix (Thermo, 4367659) according to the manufacturer's instructions. Results were expressed relative to the housekeeping gene GAPDH (Glyceraldehyde-3-Phosphate Dehydrogenase).

[2] = test system: 8-month-old 5XFAD mouse brain cortex; experiment: Single cell RNA sequencing of brain cortex: number of single cells analyzed per cell type; type: in vivo; conditions: 8-month-old 5XFAD mice cortex, trametinib 0.1 mg/kg/day
Protocol: as §1, §5
The cell suspension was diluted with Drop-seq buffer, and Drop-seq was performed using the Chromium™ Single Cell 3′ v2 Reagent Kit (Campbell et al. (2017). A molecular census of arcuate hypothalamus and median eminence cell types. Nat Neurosci 20, 484-496). Libraries were sequenced on the Illumina HiSeq X Ten, and Read 1 was 16 bp (10×™ Barcode and 10 bp UMI). […]

Spp1 mRNA = experiment: qRT-PCR of Spp1 mRNA expression in brain tissue of 5XFAD mice; type: in vivo, mouse; conditions: 0.1 mg/kg/day
Excerpt: as §1, §2, §6

[3] = test system: Neurofilament-light chain (NfL); experiment: ELISA of plasma neurofilament light chain in 5XFAD mice; type: in vivo, mouse
Excerpt: as §1, §2, §3, §4

Apolipoprotein-E (ApoE) = experiment: ELISA of plasma apolipoprotein-E in 5XFAD mice; type: in vivo, mouse; conditions: 8-month-old 5XFAD
Protocol: as §1, §3, §4

C57BL/6 mice whole brain = experiment: Whole cell RNA sequencing of whole brain of C57BL/6 mice after 1, 2, 3, or 4 weeks of administration; type: in vivo, mouse; conditions: 0.1 mg/kg/day
Protocol: Mice were sacrificed after 1, 2, 3, or 4 weeks of administration. Whole brain was extracted.
Whole cell RNA sequencing analysis was performed with the RNA isolated from the whole brain of the mice to observe the change of genes in the brain during the administration period.
The whole cell RNA sequencing was performed as follows. RNA was isolated from the whole brains of the mice, and cDNA libraries for RNA sequencing were prepared using the TruSeq Stranded mRNA Prep Kit (Illumina, San Diego, Calif.) according to the manufacturer's guidelines. The libraries were sequenced on the Illumina Nextseq500 platform, and the reads were mapped to the reference Mouse mm10 genome using Tophat v2.0.13. After read mapping, transcript assembly was performed using StringTie program. The expression profile for each sample was obtained, and RPKM (Read per Kilobase per million mapped reads) values were calculated based on the transcripts/genes. To compare the gene expression levels in each experimental group, DEG (Differentially Expressed Genes) were analyzed using DESeq2. As a result, 196 genes satisfying |fc|>=2, p value <0.05 in at least one comparison set were extracted. The extracted gene information was checked in KEGG database (http://www.kegg.jp/kegg/pathway.html) to identify which pathway the genes belong to. Genes showing at least a twofold increase in the expression level in the corresponding pathway were marked bold, and those showing at least a twofold decrease were marked italic on the right side of the heatmap (FIG. 10).

[4] = 8-month-old 5XFAD, trametinib 0.1 mg/kg/day, statistically significant
[5] = M (microglia), 8-month-old 5XFAD cortex, 0.1 mg/kg/day
[6] = microglia cluster, 5XFAD-Tra 0.1 group
[7] = C57BL/6 mice whole brain, at least twofold

**Q.** Which results are given for CC(=O)Nc1cccc(-n2c(=O)n(C3CC3)c(=O)c3c(Nc4ccc(I)cc4F)n(C)c(=O)c(C)c32)c1 [trametinib, N-(3-{3-cyclopropyl-5-[(2-fluoro-4-iodophenyl)amino]-6,8-dimethyl-2,4,7-trioxo-3,4,6,7-tetrahydropyrido[4,3-d]pyrimidin-1(2H)-yl}phenyl)acetamide]?
**A.** Neurite marker (Map2) in the brain tissue (Map2, a dendrite marker): increased; Decrease of plasma cathepsin B level vs. 5XFAD-vehicle group (Cathepsin B (CTSB); 8-month-old 5XFAD, trametinib 0.05 mg/kg/day): 62.4%; Decrease of plasma cathepsin B level vs. 5XFAD-vehicle group (Cathepsin B (CTSB); [4]): 99%; Decrease of plasma cathepsin B level vs. 5XFAD-vehicle group (Cathepsin B (CTSB); 13-month-old 5XFAD, trametinib 0.1 mg/kg/day 1 month, FIG. 6): 35%; Decrease of plasma osteopontin (OPN) level vs. 5XFAD-vehicle group (Osteopontin (OPN); trametinib 0.05 mg/kg/day): 40%; Decrease of plasma osteopontin (OPN) level vs. 5XFAD-vehicle group (Osteopontin (OPN); trametinib 0.1 mg/kg/day): 43.9%; Decrease of plasma osteopontin (OPN) level vs. vehicle group (Osteopontin (OPN); 13-month-old 5XFAD, trametinib 0.1 mg/kg/day 1 month, statistically significant): 61.5%; Log2(5XFAD-Tra0.1/5XFAD-Veh) ApoE (Apolipoprotein E) ([1]; Astro (Astrocyte), 8-month-old 5XFAD cortex, 0.1 mg/kg/day): −0.5177; Log2(5XFAD-Tra0.1/5XFAD-Veh) CTSB (Cathepsin B) ([1]; Endo (Endothelial), 8-month-old 5XFAD cortex, 0.1 mg/kg/day): 0.8182; Log2(5XFAD-Tra0.1/5XFAD-Veh) CTSE (Cathepsin E) [1, 5]: −0.543; Log2(5XFAD-Tra0.1/5XFAD-Veh) Spp1 (Osteopontin) [1, 5]: −0.646; Decrease of Spp1 expression compared to the 5XFAD-vehicle group [1, 6]: at least 1.5 fold; Decrease of Wfdc17 expression compared to the 5XFAD-vehicle group [1, 6]: at least 1.5 fold; Expression of the Spp1 gene (in words) [1, 6]: decreased; Increase of Acta2 expression compared to the 5XFAD-vehicle group [1, 6]: at least 1.5 fold; Increase of Ptgds expression compared to the 5XFAD-vehicle group [1, 6]: at least 1.5 fold; Increase of Rpl9-ps6 expression compared to the 5XFAD-vehicle group [1, 6]: at least 1.5 fold; Increase of Rpl10-ps3 expression compared to the 5XFAD-vehicle group [1, 6]: at least 1.5 fold; Decrease of plasma synaptotagmin-1 (Syt1) level vs. 5XFAD-vehicle group (Synaptotagmin-1 (Syt1); trametinib 0.05 mg/kg/day): 26.2%; Decrease of plasma synaptotagmin-1 (Syt1) level vs. 5XFAD-vehicle group (Synaptotagmin-1 (Syt1); trametinib 0.1 mg/kg/day): 41.0%; H2-Ob mRNA expression level compared to the 5XFAD-vehicle group (H2-Ob mRNA): significantly increased; Microglial population compared to the 5XFAD-vehicle group [2]: decrease; Spp1 level (mRNA) compared with the 5XFAD-vehicle group (Spp1 mRNA; 8-month-old 5XFAD mice cortex, FIG. 1A): decreasing trend; Spp1 level (mRNA) compared with the 5XFAD-vehicle group (Spp1 mRNA; 13-month-old 5XFAD mice brain, FIG. 1B): decreasing trend; Decrease of plasma neurofilament light chain (NfL) level vs. 5XFAD-vehicle group [3, 4]: 47.4%; Plasma NfL levels, vehicle vs. trametinib-administered groups ([3]; 13-month-old 5XFAD, trametinib 0.1 mg/kg/day 1 month, FIG. 7B): did not show a significant difference; Decrease of plasma apolipoprotein-E (APOE) level vs. 5XFAD-vehicle group (Apolipoprotein-E (ApoE); trametinib 0.1 mg/kg/day): 34.3%; Decrease of plasma apolipoprotein-E (APOE) level vs. 5XFAD-vehicle group (Apolipoprotein-E (ApoE); trametinib 0.2 mg/kg, statistically significant): 58.9%; Genes showing an increase in the expression level in weeks 1 and 2 (C57BL/6 mice whole brain; [7]): Oprm1, Glp1r, Grin2a, Grin2b, Glra3,; also recorded: Glra1, Cnr2, Grin3b, Gabrr2, Ksr2, Cdh1,; also recorded: Tead4, Ctnna3, PDE11a, Nt5cla; Genes showing an increase in the expression level in weeks 3 and 4 (C57BL/6 mice whole brain; [7]): Plin4, H2-Ob, Hspa1l, HSPa1b, Hnmpa1,; also recorded: Nos2, Rab5c; Genes showing a decrease in the expression level in weeks 1 and 2 (C57BL/6 mice whole brain; [7]): Pla2g4c, C1s2; Genes showing a decrease in the expression level in weeks 3 and 4 (C57BL/6 mice whole brain; [7]): Efna4, Scd4, Cd36, Ppp3r2; H2-Ob level (whole brain RNA sequencing) (C57BL/6 mice whole brain; C57BL/6 mice, 3 and 4 weeks after the administration): remarkably increased
